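GI50 = concentration required for 50% inhibition of growth. TGI denotes the concentration required for complete inhibition of growth.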
Key:
Assay in all cases: NCI-60 cell line screen, 384-well format
OVCAR-3 ovarian = test system: OVCAR-3 ovarian
MALME-3M melanoma = test system: MALME-3M melanoma
HCT-15 colon = test system: HCT-15 colon
SK-MEL-28 melanoma = test system: SK-MEL-28 melanoma
OVCAR-5 ovarian = test system: OVCAR-5 ovarian
CCRF-CEM leukemia = test system: CCRF-CEM leukemia
UACC-62 melanoma = test system: UACC-62 melanoma
SF-295 CNS = test system: SF-295 CNS
MDA-MB-468 breast = test system: MDA-MB-468 breast
SW-620 colon = test system: SW-620 colon
HL-60(TB) leukemia = test system: HL-60(TB) leukemia
NCI-H322M lung = test system: NCI-H322M lung
UACC-257 melanoma = test system: UACC-257 melanoma
A498 renal = test system: A498 renal
UO-31 renal = test system: UO-31 renal
NCI-H226 lung = test system: NCI-H226 lung
RPMI-8226 leukemia = test system: RPMI-8226 leukemia
RXF 393 renal = test system: RXF 393 renal
LOX IMVI melanoma = test system: LOX IMVI melanoma
TK-10 renal = test system: TK-10 renal
MDA-MB-435 melanoma = test system: MDA-MB-435 melanoma
ACHN renal = test system: ACHN renal
M14 melanoma = test system: M14 melanoma
MCF7 breast = test system: MCF7 breast
IGROV1 ovarian = test system: IGROV1 ovarian
SK-MEL-2 melanoma = test system: SK-MEL-2 melanoma
HOP-92 NSCLC = test system: HOP-92 NSCLC
MDA-MB-231 breast = test system: MDA-MB-231 breast
SK-MEL-5 melanoma = test system: SK-MEL-5 melanoma
HT29 colon = test system: HT29 colon
OVCAR-4 ovarian = test system: OVCAR-4 ovarian
SR leukemia = test system: SR leukemia
SK-OV-3 ovarian = test system: SK-OV-3 ovarian
MOLT-4 leukemia = test system: MOLT-4 leukemia
HCC-2998 colon = test system: HCC-2998 colon

Q: How did the GI50 (OVCAR-3 ovarian) turn out when `O=C(c1cc(-c2cc3c(cc2C(=O)N2Cc4ccccc4C[C@H]2CN2CCOCC2)OCO3)n2c1CCCC2)N(c1ccccc1)c1ccc(O)cc1` was run?
A: Its GI50 is 0.21 µM.

Q: And the TGI (OVCAR-3 ovarian)?
A: Its TGI is 0.497 µM.

Q: And the GI50 (MALME-3M melanoma)?
A: The GI50 was 0.473 µM.

Q: And the TGI (MALME-3M melanoma)?
A: The TGI was 4.71 µM.

Q: What about the GI50 (HCT-15 colon) of the same compound?
A: The GI50 was 1.75 µM.

Q: And the TGI (HCT-15 colon)?
A: Its TGI is 3.22 µM.

Q: What about the GI50 (SK-MEL-28 melanoma) of the same compound?
A: Its GI50 is 0.735 µM.

Q: And the TGI (SK-MEL-28 melanoma)?
A: The TGI was 2.6 µM.

Q: And the GI50 (OVCAR-5 ovarian)?
A: Its GI50 is 2.76 µM.

Q: And the TGI (OVCAR-5 ovarian)?
A: The TGI was 8.21 µM.

Q: And the GI50 (CCRF-CEM leukemia)?
A: The GI50 was 0.255 µM.

Q: And the TGI (CCRF-CEM leukemia)?
A: The TGI was 0.618 µM.

Q: What about the GI50 (UACC-62 melanoma) of the same compound?
A: Its GI50 is 0.356 µM.

Q: What about the TGI (UACC-62 melanoma) of the same compound?
A: The TGI was 1.82 µM.

Q: What about the GI50 (SF-295 CNS) of the same compound?
A: Its GI50 is 2.04 µM.

Q: What about the TGI (SF-295 CNS) of the same compound?
A: The TGI was 4.28 µM.

Q: And the GI50 (MDA-MB-468 breast)?
A: The GI50 was 0.214 µM.

Q: What about the TGI (MDA-MB-468 breast) of the same compound?
A: Its TGI is 0.456 µM.

Q: What about the GI50 (SW-620 colon) of the same compound?
A: The GI50 was 0.444 µM.

Q: And the TGI (SW-620 colon)?
A: The TGI was 1.54 µM.

Q: And the GI50 (HL-60(TB) leukemia)?
A: Its GI50 is 0.146 µM.

Q: What about the TGI (HL-60(TB) leukemia) of the same compound?
A: The TGI was 0.28 µM.

Q: What about the GI50 (NCI-H322M lung) of the same compound?
A: The GI50 was 2.43 µM.

Q: What about the TGI (NCI-H322M lung) of the same compound?
A: The TGI was > 100 µM.

Q: What about the GI50 (UACC-257 melanoma) of the same compound?
A: Its GI50 is 0.362 µM.

Q: What about the TGI (UACC-257 melanoma) of the same compound?
A: The TGI was 1.25 µM.

Q: What about the GI50 (A498 renal) of the same compound?
A: The GI50 was 0.806 µM.

Q: And the TGI (A498 renal)?
A: Its TGI is 3.57 µM.

Q: What about the GI50 (UO-31 renal) of the same compound?
A: The GI50 was 4.17 µM.

Q: What about the TGI (UO-31 renal) of the same compound?
A: Its TGI is > 100 µM.

Q: What about the GI50 (NCI-H226 lung) of the same compound?
A: The GI50 was 1.01 µM.

Q: And the TGI (NCI-H226 lung)?
A: Its TGI is 3.18 µM.

Q: And the GI50 (RPMI-8226 leukemia)?
A: The GI50 was 0.207 µM.

Q: What about the TGI (RPMI-8226 leukemia) of the same compound?
A: The TGI was 0.437 µM.

Q: What about the GI50 (RXF 393 renal) of the same compound?
A: The GI50 was 0.137 µM.

Q: What about the TGI (RXF 393 renal) of the same compound?
A: Its TGI is 0.484 µM.

Q: What about the GI50 (LOX IMVI melanoma) of the same compound?
A: The GI50 was 1.42 µM.

Q: What about the TGI (LOX IMVI melanoma) of the same compound?
A: The TGI was 3.25 µM.

Q: And the GI50 (TK-10 renal)?
A: Its GI50 is 2.83 µM.

Q: What about the TGI (TK-10 renal) of the same compound?
A: Its TGI is > 100 µM.

Q: And the GI50 (MDA-MB-435 melanoma)?
A: Its GI50 is 0.144 µM.

Q: What about the TGI (MDA-MB-435 melanoma) of the same compound?
A: Its TGI is 0.351 µM.

Q: And the GI50 (ACHN renal)?
A: The GI50 was 4.91 µM.

Q: And the TGI (ACHN renal)?
A: The TGI was > 100 µM.

Q: And the GI50 (M14 melanoma)?
A: The GI50 was 0.475 µM.

Q: And the TGI (M14 melanoma)?
A: Its TGI is 1.7 µM.

Q: And the GI50 (MCF7 breast)?
A: Its GI50 is 0.412 µM.

Q: And the TGI (MCF7 breast)?
A: The TGI was 3 µM.

Q: And the GI50 (IGROV1 ovarian)?
A: The GI50 was 2.77 µM.

Q: What about the TGI (IGROV1 ovarian) of the same compound?
A: The TGI was > 100 µM.

Q: And the GI50 (SK-MEL-2 melanoma)?
A: Its GI50 is 0.176 µM.

Q: What about the TGI (SK-MEL-2 melanoma) of the same compound?
A: The TGI was 0.704 µM.

Q: What about the GI50 (HOP-92 NSCLC) of the same compound?
A: Its GI50 is 0.502 µM.

Q: What about the TGI (HOP-92 NSCLC) of the same compound?
A: Its TGI is 2.42 µM.

Q: And the GI50 (MDA-MB-231 breast)?
A: The GI50 was 1.19 µM.

Q: What about the TGI (MDA-MB-231 breast) of the same compound?
A: Its TGI is 3.23 µM.

Q: What about the GI50 (SK-MEL-5 melanoma) of the same compound?
A: Its GI50 is 0.305 µM.

Q: And the TGI (SK-MEL-5 melanoma)?
A: The TGI was 0.928 µM.

Q: And the GI50 (HT29 colon)?
A: The GI50 was 0.419 µM.

Q: What about the TGI (HT29 colon) of the same compound?
A: The TGI was 1.46 µM.

Q: What about the GI50 (OVCAR-4 ovarian) of the same compound?
A: The GI50 was 1.29 µM.

Q: What about the TGI (OVCAR-4 ovarian) of the same compound?
A: The TGI was 4.43 µM.

Q: And the GI50 (SR leukemia)?
A: The GI50 was 0.0773 µM.

Q: What about the TGI (SR leukemia) of the same compound?
A: Its TGI is 0.206 µM.

Q: And the GI50 (SK-OV-3 ovarian)?
A: Its GI50 is 0.356 µM.

Q: What about the TGI (SK-OV-3 ovarian) of the same compound?
A: Its TGI is 1.46 µM.

Q: What about the GI50 (MOLT-4 leukemia) of the same compound?
A: The GI50 was 0.182 µM.

Q: And the TGI (MOLT-4 leukemia)?
A: The TGI was 0.327 µM.

Q: What about the GI50 (HCC-2998 colon) of the same compound?
A: The GI50 was 1.27 µM.

Q: And the TGI (HCC-2998 colon)?
A: The TGI was 2.83 µM.
